According to patent publication US20230381314A1, “ATTENUATED CANCER CELLS AND METHODS RELATED THERETO” (priority 2020, published 2023):

Experiments:
AML model (C1498 cells) = assay: In vivo treatment of AML with adjuvant (chemo-immunotherapy); set-up: species or system C57BL/6J mice; conditions: leukemia-bearing mice, up to 21 days post-tumor inoculation, DOX 5 mg/kg, MPLA 20 μg
Method: AML model was established by intravenous injection of 5×10^6 C1498 cells on day 0. On day 8 and day 15, saline, LNT cell+Adjuvant, free DOX and LNT cell/DOX+Adjuvant were administrated intravenously with DOX dose of 5 mg/kg and adjuvant (monophosphoryl lipid A, MPLA) 20 μg per mouse. Specifically, MPLA was intravenously injected 10 h post-injection of LNT cell or LNT cell/DOX. The bioluminescence images of mice were captured every 3 days. The exposure time was 2 min. On day 13, 400 μL blood was collected via the orbital vein. 200 μL blood was treated with ACK buffer and centrifuged at 800 g for 8 min to obtain pellets of white blood cells. After staining with BV421-CD3, PE-CD4 and APC-CD8, the samples were analyzed by flow cytometry. Another 200 μL blood in blood serum collection tubes (BD Microtainer 365967) was centrifuged at 3000 rpm for 10 min. The upper serum was detected with the following ELISA kits: IFN-γ (BioLegend 430804) and TNF-α (BioLegend 430904).

Compound: COc1cccc2c1C(=O)c1c(O)c3c(c(O)c1C2=O)C[C@@](O)(C(=O)CO)C[C@@H]3O[C@H]1C[C@H](N)[C@H](O)[C@H](C)O1.Cl [free DOX, Doxorubicin hydrochloride]
- AML progression (bioluminescence of AML cancer cells) (AML model (C1498 cells)): partially inhibited
- IC50, in vitro cytotoxicity against C1498 cells (C1498 cells): 0.32 µg/mL
